Laboratory results from patent EP0104572A1, “Benzyl ethers of phenol Mannich bases, process for their production, their use and pharmaceutical preparations based on these compounds, intermediates and process for their production” (priority 1982, dated 1984).
Read-outs that look alike come from different tables or passages of the source.

Tests used:
[1] = tested on: Serum-Lipoproteine; test: Change of serum and lipoprotein-fraction cholesterol in rats after 7 days of oral treatment (ultracentrifuge fractionation, CHOD-PAP cholesterol); type: in vivo, männlichen Wistar-Ratten; conditions: Rattus norvegicus, 168 h, oral (gavage), 7 days, male Wistar rats; for change in vivo at 3 mg/kg: 3 mg/kg / Tag; for change in vivo at 10 mg/kg: 10 mg/kg / Tag; for change in vivo at 30 mg/kg: 30 mg/kg / Tag; for change in vivo at 1 mg/kg: 1 mg/kg / Tag; for change in vivo at 20 mg/kg: 20 mg/kg / Tag
From the text: (§1) Die Wirkung der angeführten Verbindungen auf die Serum- Lipoproteine wurde an männlichen Wistar-Ratten untersucht, die 7 Tage per Schlundsonde mit den angeführten in Polyäthylenglykol 400 suspendierten Verbindungen behandelt wurden. Außerdem wurde eine Kontrollgruppe, die nur das Lösungsmittel Polyäthylenglykol 400 erhielt, mitgeführt, sowie bei den meisten Versuchen eine Ratten-Gruppe mit dem Standardhypolipidämikum Clofibrat. Pro Gruppe wurden in der Regel 10 Tiere eingesetzt, denen am Ende der Behandlung das Blut nach leichter Äthernarkose aus dem Orbitalplexus entnommen wurde. Aus dem gewonnenen Ratten-Serum wurden die Serum- Lipoproteine in der präparativen Ultrazentrifuge in folgende Dichteklassen getrennt: VLDL < 1,006; LDL 1,006 bis 1,04; HDL 1,04 bis 1,21
Da nämlich im Gegensatz zum Menschen die Serumlipoproteine der Ratte etwa 4/5 HDL-Cholesterin und nur 1/5 LDL-Cholesterin enthalten und nur sehr geringe Mengen von VLDL (beim Menschen umgekehrt etwa 2/3 LDL und VLDL und nur 1/3 bis 1/4 HDL), macht die Beurteilung einer hypolipidämischen Wir- .kung an der Ratte unbedingt eine Fraktionierung des Ratten-serums in Lipoproteinklassen erforderlich. Eine bloße Erniedrigung des Serum-Total-cholesteringehaltes an der Ratte würde nämlich nur die unerwünschte Erniedrigung der bei der Ratte vorwiegenden antiatherogenen HDL-Klasse anzeigen. Eine erwünschte Erniedrigung von LDL bei gleichzeitiger erwünschter Vermehrung von HDL hätte aber keine (wesentliche) Auswirkung auf den Totalcholesteringehalt des Ratten-Serums.
Aus den in der Ultrazentrifuge isolierten LipoproteinFraktionen wurde das darin enthaltene Cholesterin vollenzymatisch nach der CHOD-PAP-Methode mittels der Testkombination von Boehringer-Mannheim bestimmt und die Werte in µg/ml Serum umgerechnet. In der angeführten Tabelle ist die Veränderung des Lipoprotein-Cholesterins in der behandelten Gruppe gegenüber einer unter gleichen Bedingungen mitgeführten Kontrollgruppe angegeben.
Veränderung in % der Lipoproteine im Ratten-Serum nach siebentägiger oraler Applikation der Verbindungen

[2] = Change of relative liver weight and liver findings in the 7-day oral rat study; type: in vivo, männlichen Wistar-Ratten; conditions: for % Veränderung des relativen Lebergewichtes: oral (gavage), 7 days, male Wistar rats
From the text: Die erfindungsgemäßen Verbindungen haben wertvolle therapeutische Eigenschaften. So erniedrigen sie vor allem die Konzentration von LDL und VLDL, die HDL-Fraktion aber kaum, in vielen Fällen wird diese Fraktion sogar vermehrt. Diese Verbindungen stellen daher einen wesentlichen Fortschritt gegenüber der Vergleichsverbindung Clofibrat dar, wie aus .den nachfolgend beschriebenen Daten ersichtlich ist. Sie können daher zur Prophylaxe und Regression von arteriosklerotischen Veränderungen herangezogen werden, indem sie einen kausalen Risikofaktor ausschalten. Hierzu zählen nicht nur die primären Hyperlidämien, sondern auch gewisse sekundäre Hyperlipidämien wie sie z.B. beim Diabetes vorkommen. […] Die mit einer hypolipidämischen Wirkung verbundene unerwünschte Beeinflussung der Leber zeigt sich auch in sehr starkem Maße bei der in J.Med.Chem. 18 (1975) S. 833-836 beschriebenen Vergleichsverbindung 1-(4-Methylbenzyl)-imidazol. […] Die erfindungsgemäßen Verbindungen zeigen dieses unerwünschte Verhalten nicht.
as §1

[3] = read-out: Cholesterolveränderung in %, bezogen auf die Kontrollgruppe im Serum
[4] = read-out: Cholesterolveränderung in %, bezogen auf die Kontrollgruppe in den Serum-Lipoprotein-Fraktionen HDL
[5] = read-out: Cholesterolveränderung in %, bezogen auf die Kontrollgruppe in den Serum-Lipoprotein-Fraktionen LDL
[6] = read-out: Cholesterolveränderung in %, bezogen auf die Kontrollgruppe in den Serum-Lipoprotein-Fraktionen VLDL

Molecule `Cc1ccc(Cn2ccnc2)cc1` [1-(4-Methyl-benyl)-imidazol, 1-(4-Methylbenzyl)-imidazol, reference compound] has a change in vivo at 3 mg/kg [1, 3] of 11%, a change in vivo at 3 mg/kg [1, 4] of 18% and a change in vivo at 3 mg/kg [1, 5] of -5%. For the same molecule, the change in vivo at 3 mg/kg [1, 6] was 10%, the change in vivo at 10 mg/kg [1, 3] was 16% and the change in vivo at 10 mg/kg [1, 4] was 22%. For the same molecule, the change in vivo at 10 mg/kg [1, 5] was -3%, the change in vivo at 10 mg/kg [1, 6] was -23% and the change in vivo at 30 mg/kg [1, 3] was -44%. The change in vivo at 30 mg/kg [1, 4] was -24%, the change in vivo at 30 mg/kg [1, 5] was -90% and the change in vivo at 30 mg/kg [1, 6] was -100%. The “unerwünschte Beeinflussung der Leber” value ([2]; rat, in vivo) was “massive Hepatomegalie mit massiven Neutralfett- und Cholesterineinlagerungen”.
`CC(C)(C)C(=O)c1ccc(COc2c(Cl)cc(Cn3ccnc3)cc2Cl)cc1` [Beispiel 1.6] gave a change in vivo at 10 mg/kg [1, 4] of 7% and a change in vivo at 10 mg/kg [1, 5] of -32%.
`Cc1cc(Cn2ccnc2)cc(Cl)c1OCc1ccc(C(=O)C(C)(C)C)cc1` [Beispiel 1, 4-[2-Chlor-4-(-imidazol-1-ylmethyl)-6-methylphenoxymethyl]-phenyl-tert.-butyl-keton] gave a change in vivo at 1 mg/kg [1, 4] of 8%, a change in vivo at 1 mg/kg [1, 5] of -40% and a change in vivo at 1 mg/kg [1, 6] of 0%. The change in vivo at 3 mg/kg [1, 3] was -12%, the change in vivo at 3 mg/kg [1, 4] was 3% and the change in vivo at 3 mg/kg [1, 5] was -42%. It also gave a change in vivo at 3 mg/kg [1, 6] of 0%, a change in vivo at 10 mg/kg [1, 3] of -17% and a change in vivo at 10 mg/kg [1, 4] of -5%. The change in vivo at 10 mg/kg [1, 5] was -52%, the change in vivo at 10 mg/kg [1, 6] was 0% and the “% Veränderung des relativen Lebergewichtes” value ([2]; 1 mg/kg / Tag) was “+4%”. The “% Veränderung des relativen Lebergewichtes” value ([2]; 3 mg/kg / Tag) was “+9%”.
For `Cc1cc(Cn2ccnc2)cc(C)c1OCc1ccc(C(=O)c2ccc(Cl)cc2)cc1` [Beispiel 1.46], the change in vivo at 10 mg/kg [1, 5] was -35% and the change in vivo at 10 mg/kg [1, 6] was -29%.
`COc1cc(Cn2ccnc2)cc(OC)c1OCc1ccc(C(=O)C(C)(C)C)cc1` [Beispiel 1.8] showed a change in vivo at 20 mg/kg [1, 3] of -19%, a change in vivo at 20 mg/kg [1, 4] of -4% and a change in vivo at 20 mg/kg [1, 5] of -43%. For the same molecule, the change in vivo at 20 mg/kg [1, 6] was -19%.
`Cc1cc(Cn2ccnc2)cc(C)c1OCc1ccc(C(O)C(C)(C)C)cc1` (stereo not shown) [Beispiel 2.1] showed a change in vivo at 1 mg/kg [1, 4] of 17%, a change in vivo at 1 mg/kg [1, 5] of -53% and a change in vivo at 1 mg/kg [1, 6] of 17%. It also gave a change in vivo at 10 mg/kg [1, 3] of -22%, a change in vivo at 10 mg/kg [1, 5] of -66% and a change in vivo at 10 mg/kg [1, 6] of -54%. The “% Veränderung des relativen Lebergewichtes” value ([2]; 1 mg/kg / Tag) was “+11%”.
`CC(C)c1cc(Cn2ccnc2)cc(C(C)C)c1OCc1ccc(C(O)C(C)(C)C)cc1` (stereo not shown) [Beispiel 2.4] showed a change in vivo at 30 mg/kg [1, 3] of -12%, a change in vivo at 30 mg/kg [1, 5] of -38% and a change in vivo at 30 mg/kg [1, 6] of -50%.
In the case of `Cc1cc(Cn2ccnc2)cc(Cl)c1OCc1ccc(C(O)C(C)(C)C)cc1` (stereo not drawn) [Beispiel 5, α-Tert.-butyl-4-[2-Chlon-6-methyl-4-(imidazol-1-ylmekthyl)-phenoxymethyl]-benzylalkohol], the change in vivo at 1 mg/kg [1, 5] is reported as -39%, the change in vivo at 1 mg/kg [1, 6] is reported as -13% and the change in vivo at 3 mg/kg [1, 4] is reported as 18%. It also gave a change in vivo at 3 mg/kg [1, 5] of -47%, a change in vivo at 3 mg/kg [1, 6] of -10% and a change in vivo at 10 mg/kg [1, 3] of -23%. For the same molecule, the change in vivo at 10 mg/kg [1, 5] was -59%, the change in vivo at 10 mg/kg [1, 6] was -46% and the “% Veränderung des relativen Lebergewichtes” value ([2]; 3 mg/kg / Tag) was “+13%”.
With `Cc1cc(Cn2cncn2)cc(Cl)c1OCc1ccc(C(=O)C(C)(C)C)cc1` [Beispiel 1.19] the change in vivo at 10 mg/kg [1, 3] was -11%, the change in vivo at 10 mg/kg [1, 5] was -29% and the change in vivo at 10 mg/kg [1, 6] was -35%.
For `Cc1cc(Cn2ccnc2)cc(C)c1OCc1ccc(C(=O)C(C)(C)C)cc1` [Beispiel 3, 4-[2,6-Dimethyl-4-(imidazol-1-ylmethyl)-phenoxymethyl]-phenyl-tert.-butyl-keton], the change in vivo at 1 mg/kg [1, 4] was 5%, the change in vivo at 1 mg/kg [1, 5] was -33% and the change in vivo at 1 mg/kg [1, 6] was 30%. The change in vivo at 3 mg/kg [1, 4] was 2%, the change in vivo at 3 mg/kg [1, 5] was -36% and the change in vivo at 3 mg/kg [1, 6] was 17%. The change in vivo at 10 mg/kg [1, 4] was 2%, the change in vivo at 10 mg/kg [1, 5] was -45% and the change in vivo at 10 mg/kg [1, 6] was -58%. The “% Veränderung des relativen Lebergewichtes” value ([2]; 1 mg/kg / Tag) was -2% and the “% Veränderung des relativen Lebergewichtes” value ([2]; 3 mg/kg / Tag) was -4%.
Molecule `C=CCc1cc(Cn2ccnc2)cc(C)c1OCc1ccc(C(O)C(C)(C)C)cc1` (stereo not shown) [Beispiel 2.2] has a change in vivo at 30 mg/kg [1, 4] of 14%, a change in vivo at 30 mg/kg [1, 5] of -49% and a change in vivo at 30 mg/kg [1, 6] of -34%.
In the case of `Cc1cc(Cn2cccn2)cc(C)c1OCc1ccc(C(=O)C(C)(C)C)cc1` [Beispiel 1.21], the change in vivo at 30 mg/kg [1, 3] is reported as 0%, the change in vivo at 30 mg/kg [1, 5] is reported as -35% and the change in vivo at 30 mg/kg [1, 6] is reported as -62%.
With `Cc1cc(Cn2ccnc2)cc(C)c1OCc1ccc(C2(C(C)(C)C)OCCO2)cc1` [Beispiel 1.52] the change in vivo at 30 mg/kg [1, 5] was -23% and the change in vivo at 30 mg/kg [1, 6] was -36%.
In the case of `Cc1cc(Cn2ccnc2)cc(C)c1OCc1ccc(C(=O)C(C)(C)CCl)cc1` [Beispiel 1.16], the change in vivo at 3 mg/kg [1, 4] is reported as -11%, the change in vivo at 3 mg/kg [1, 5] is reported as -32% and the change in vivo at 3 mg/kg [1, 6] is reported as -32%. The change in vivo at 10 mg/kg [1, 3] was -15%, the change in vivo at 10 mg/kg [1, 4] was -1% and the change in vivo at 10 mg/kg [1, 5] was -52%. The change in vivo at 10 mg/kg [1, 6] was -24%.
In the case of `C=CCc1cc(Cn2ccnc2)cc(Cl)c1OCc1ccc(C(=O)C(C)(C)C)cc1` [Beispiel 1.7], the change in vivo at 20 mg/kg [1, 3] is reported as -18%, the change in vivo at 20 mg/kg [1, 4] is reported as -7% and the change in vivo at 20 mg/kg [1, 5] is reported as -43%.
In the case of `C=CCc1cc(Cn2ccnc2)cc(C)c1OCc1ccc(C(=O)C(C)(C)C)cc1` [Beispiel 1.2], the change in vivo at 30 mg/kg [1, 4] is reported as 9%, the change in vivo at 30 mg/kg [1, 5] is reported as -39% and the change in vivo at 30 mg/kg [1, 6] is reported as -31%.
